From patent US11493517B2, “Eukaryotic translation initiation factors (EIFS) as novel biomarkers in head and neck squamous cell carcinoma (HNSCC)” (Otto-von-Guericke-Universität Magdeburg, priority 2020, dated 2022)
pIC50: −log10 of the molar value. Read-outs that look alike come from different tables or passages of the source.

What was measured:
[1] = test system: moderately differentiated laryngeal cancer cell lines (SNU-899, SNU-1066, SNU-1214); test: MTT cell viability assay in cell culture; assay type: cell-based
Procedure: MTT Assay in Cell Culture Cell viability assays were carried out with 3 moderately differentiated laryngeal cancer cell lines (SNU-899, SNU-1066, SNU-1214}. MTT reagent stock solution was prepared by dissolving 5 mg crystal in 1 ml PBS and filter sterilization. The cell culture medium was aspirated and replaced by 100 μl fresh medium and 10 μl MTT stock solution per well. The plates were incubated at 37° C. for two hours. The supernatant was removed and 100 μl DMSO was added to each well. After 15-minute incubation at room temperature in a orbital shaker the absorption at […] was detected. All measurements were performed three times using GloMax@-Multi+Microplate Multimode Reader (Promega, Germany}. All experiments were performed three times with three repetitions.

[2] = test system: 3D-organoids of HNSCC derived from patient populations; test: Patient derived 3D-organoids chemosensitivity testing (CellTiter-Glo luminescence cell viability assay); assay type: cell-based; details: for pIC50: Homo sapiens, patient derived HNSCC 3D-organoids, 72 h incubation
Procedure: Patient Derived 3D-Organoids (PD30} and Chemosensitivity Testing Tumor samples from patients, who have undergone resection in the ENT clinic of Otto-von-Guericke University in Magdeburg, were incubated overnight in the RPM medium containing penicillin, streptomycin and amphotericin. On the following day, the tissue samples were crushed, passed through a sieve set to produce a size fraction of between […], which were then incubated on 24-well plates at 37° C. The PD30s were incubated with Salubrinal in a 384-well culture plate for 72 h (i.e. the double population doubling time}. Thereafter, the CellTiter-Glo® luminescence cell viability assay was performed. The reagent mixture was assembled according to the manufacturer's instructions. All experiments were performed three times with three repetitions

SMILES: O=C(/C=C/c1ccccc1)NC(NC(=S)Nc1cccc2cccnc12)C(Cl)(Cl)Cl (centres unmarked) [Salubrinal]
- cytotoxicity at 50 µM ([1]; effect dependent on the cell line and on the dosage, highest efficacy at 50 μM after 72 hours, read-out: reduction of the viability of the cells): 20 to 40%
- effect on cell viability (FIG. 4) ([1]; in words): reduction in cell viability
- pIC50 ([2]; read-out: IC50 range across samples, reduction of cell viability, range over samples): 3.80 to 4.80
- pIC50 ([2]; read-out: average IC50, reduction of cell viability, average over samples): 4.25
- effect on cell viability in 3D-cell culture (FIG. 5) ([2]; in words): reduction of cell viability
